Residues, ends and D or L forms follow the SMILES beside them.
Columns and labels:
GPR55 [1] = molecular target: T1, GPR55 (Homo sapiens, UniProt Q9Y2T6); test: Dynamic mass redistribution (DMR), concentration-response; assay type: cell-based; parameters: hIL-2Ra signal peptide (N); expressed in transfected cells; conditions: mean; for DMR assays Emax (peak or AUC): SEM and n (1-4)
Method: (§1) 48 hr prior to parallel assaying, SNAP-tagged oGPCR cells were plated (10,000 cells/well) in fibronectin-coated 384-well Epic biosensor microplates (Corning) and poly-D-lysine coated white 384-well plates (for internalization assays). SNAP- GLP-1 receptor was plated alongside orphan receptor cells as an internal assay control for internalization assays. Receptor-expression was induced with 0.1 μg/ml doxycycline.
DMR assays provide a single integrated readout of ligand-dependent cellular response, utilizing an optical biosensor in specialized microplates to detect wavelength shifts of reflected light as it passes through the biosensor and the lower portion of the cell (∼150-200 nm). As a signal pathway agnostic approach, DMR assays are well-suited to the study of GPCRs ([Fang et al., 2008], [Schröder et al., 2011]). The mass redistribution response (Δ picometer (pm)) likely reflects a number of intracellular events, including cytoskeletal rearrangement, protein trafficking and receptor internalization. Orphan receptor-expressing cells were gently washed twice with assay buffer (HBSS with 1 mM CaCl2, 1 mM MgCl2, 20 mM HEPES, 0.01% pluronic F-68, pH 7.4) containing 0.1% DMSO and cells were equilibrated for 90 min at 22°C in the EPIC Benchtop (BT) System (Corning) to establish a stable DMR signal. After 3-5 min baseline recordings, peptides (10 μM) were added in duplicate wells using an electronic 384-channel Viaflo pipette (Integra Biosciences, Switzerland) and DMR responses were measured for 60 min at 22°C. 100 nM norepinephrine was included as an internal assay control to assess the cellular DMR response via endogenously-expressed adrenoceptors in the TREx 293 cells. Real-time data were processed using the BT to column converter MS-Excel macro (Corning) and analyzed in GraphPad Prism 7.0. DMR recordings in peptide screening experiments were buffer and solvent corrected and the area under the curve (AUC) was quantified. For subsequent validation experiments, peptides were diluted in assay buffer containing 0.1% DMSO and DMR assays were performed as above. […] Data represent mean ± standard error of the mean (SEM) from at least 3 biologically independent experiments.

GPR55 [2] = molecular target: T1, GPR55; test: Real-time receptor internalization (TR-FRET), concentration-response; assay type: cell-based; parameters: hIL-2Ra signal peptide (N); expressed in transfected cells
Method: as §1
A TR-FRET real-time internalization assay was used to examine peptide-dependent changes in orphan receptor localization as described previously ([Foster and Bräuner-Osborne, 2018]). Surface-expressed SNAP-tagged receptors were labeled with a cell-impermeable luminescent terbium cryptate (100 nM SNAP Lumi4-Tb; Cisbio, France) for 1 hr at 37°C. Cells were washed to remove excess terbium and incubated with fluorescein-O-acetic acid (100 μM; Sigma Aldrich) for 5 min at 37°C. Peptides were added as for DMR assays, and internalization responses were recorded for 60 min at 37°C using an EnVision 2104 Multimode plate reader (PerkinElmer). 100 nM GLP-1 was used as a positive control for SNAP-GLP1R internalization. Real-time internalization responses were calculated based on TR-FRET (excitation 340 nm; emission 520 nm and 615 nm), and were expressed as the ratio between donor (terbium) and acceptor (fluorescein) emission. For peptide screening analysis (both DMR and internalization assays), we calculated the area under the curve from the real-time traces. […] Validation experiments for receptor internalization were performed as above. Internalization data was processed in MS-Excel and area under the curve was used to generate concentration-response curves using GraphPad Prism 7.0. Data represent mean ± standard error of the mean (SEM) from at least 3 biologically independent experiments.

[3] = receptor GPR55, mean, SEM and n (3-4)
[4] = receptor GPR55, SEM and n (2-4), read-out: DMR assays pEC50 (converted)
[5] = receptor GPR55, mean, SEM and n (3-4), read-out: Internalization assays pEC50 (converted)
[6] = GPR55, SEM and n, read-out: pEC50, DMR (AUC) (converted)
[7] = GPR55, mean, SEM and n, read-out: pEC50, Internalization (AUC) (converted)

T1 sequence (Q9Y2T6 2-319 limits assumed): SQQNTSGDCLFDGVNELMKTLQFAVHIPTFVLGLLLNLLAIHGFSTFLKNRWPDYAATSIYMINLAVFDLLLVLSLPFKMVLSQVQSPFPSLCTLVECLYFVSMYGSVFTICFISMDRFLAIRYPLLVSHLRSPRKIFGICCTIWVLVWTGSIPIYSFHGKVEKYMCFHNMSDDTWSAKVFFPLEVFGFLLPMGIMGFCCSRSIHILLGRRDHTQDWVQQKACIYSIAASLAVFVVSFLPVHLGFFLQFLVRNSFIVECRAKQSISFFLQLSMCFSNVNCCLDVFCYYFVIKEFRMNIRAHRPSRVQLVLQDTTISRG

Molecule	DMR assays Emax (peak or AUC) (GPR55 [1]; receptor GPR55)	Internalization assays Emax (AUC) (GPR55 [2]; [3])	EC50 (GPR55 [1]; [4])	EC50 (GPR55 [2]; [5])	other results
KRLGALFNPYFDPLQWKNSDFE [143 original]	555860	39.5			
CC(C)C[C@H](NC(=O)[C@H](C)NC(=O)CNC(=O)[C@H](CC(C)C)NC(=O)[C@H](CCCNC(=N)N)NC(=O)[C@@H](N)CCCCN)C(=O)N[C@@H](Cc1ccccc1)C(=O)N[C@@H](CC(N)=O)C(=O)N1CCC[C@H]1C(=O)N[C@@H](Cc1ccc(O)cc1)C(=O)N[C@@H](Cc1ccccc1)C(=O)N[C@@H](CC(=O)O)C(=O)N1CCC[C@H]1C(=O)N[C@@H](CC(C)C)C(=O)N[C@@H](CCC(N)=O)C(=O)N[C@@H](Cc1c[nH]c2ccccc12)C(=O)N[C@@H](CCCCN)C(=O)N[C@@H](CC(N)=O)C(=O)N[C@@H](CO)C(=O)N[C@@H](CC(=O)O)C(=O)N[C@@H](Cc1ccccc1)C(=O)N[C@@H](CCC(=O)O)C(=O)O [143 resynthesized] (H-KRLGALFNPYFDPLQWKNSDFE-OH)			3160 nM	6.31 µM	
CC[C@H](C)[C@H](NC(=O)CNC(=O)[C@H](CC(=O)O)NC(=O)[C@H](CO)NC(=O)[C@@H](N)Cc1c[nH]cn1)C(=O)N[C@@H](Cc1ccccc1)C(=O)N[C@H](C(=O)N[C@@H](CC(=O)O)C(=O)N[C@@H](CO)C(=O)N[C@@H](Cc1ccc(O)cc1)C(=O)N[C@@H](CO)C(=O)N[C@@H](CCCNC(=N)N)C(=O)N[C@@H](Cc1ccc(O)cc1)C(=O)N[C@@H](CCCNC(=N)N)C(=O)N[C@@H](CCCCN)C(=O)N[C@@H](CCC(N)=O)C(=O)N[C@@H](CCSC)C(=O)N[C@@H](C)C(=O)N[C@H](C(=O)O)C(C)C)[C@@H](C)O [Peptide 168.5]	31768	17.8	1 nM	75.9 µM	
DLLPPRTPPYQVHISHREARGPSFRICVDFLG [Peptide 213.5]	-71711	19.6			
CC[C@H](C)[C@H](NC(=O)CNC(=O)[C@H](CC(=O)O)NC(=O)[C@H](CO)NC(=O)[C@@H](N)Cc1cnc[nH]1)C(=O)N[C@@H](Cc1ccccc1)C(=O)N[C@H](C(=O)N[C@@H](CC(=O)O)C(=O)N[C@@H](CO)C(=O)N[C@@H](Cc1ccc(O)cc1)C(=O)N[C@@H](CO)C(=O)N[C@@H](CCCNC(=N)N)C(=O)N[C@@H](Cc1ccc(O)cc1)C(=O)N[C@@H](CCCNC(=N)N)C(=O)N[C@@H](CCCCN)C(=O)N[C@@H](CCC(N)=O)C(=O)N[C@@H](CCSC)C(=O)N[C@@H](C)C(=O)N[C@H](C(=O)N[C@@H](CCCCN)C(=O)N[C@@H](CCCCN)C(=O)N[C@@H](Cc1ccc(O)cc1)C(=O)N[C@@H](CC(C)C)C(=O)N[C@@H](C)C(=O)N[C@@H](C)C(=O)N[C@H](C(=O)N[C@@H](CC(C)C)C(=O)NCC(=O)N[C@@H](CCCCN)C(=O)N[C@@H](CCCNC(=N)N)C(=O)N[C@@H](Cc1ccc(O)cc1)C(=O)N[C@@H](CCCCN)C(=O)N[C@@H](CCC(N)=O)C(=O)N[C@@H](CCCNC(=N)N)C(=O)N[C@H](C(=O)N[C@@H](CCCCN)C(=O)N[C@@H](CC(N)=O)C(=O)N[C@@H](CCCCN)C(N)=O)C(C)C)C(C)C)C(C)C)[C@@H](C)O [168.1 (Phoenix)]			148 nM		EC50 (GPR55 [2]; Internalization assays pEC50): 0.000123 µM
CC(C)C[C@H](NC(=O)[C@@H](N)CC(=O)O)C(=O)N[C@@H](CC(C)C)C(=O)N1CCC[C@H]1C(=O)O [Peptide 213.1] (H-DLLP-OH)			0.00724 nM	0.195 µM	
CC[C@H](C)[C@H](NC(=O)[C@H](CC(=O)O)NC(=O)[C@@H](NC(=O)[C@H](Cc1ccc(O)cc1)NC(=O)[C@@H](NC(=O)CNC(=O)[C@H](CC(N)=O)NC(=O)[C@@H](NC(=O)[C@H](CC(C)C)NC(=O)[C@H](Cc1ccc(O)cc1)NC(=O)[C@H](CC(=O)O)NC(=O)[C@H](CC(C)C)NC(=O)[C@H](CCCNC(=N)N)NC(=O)[C@H](CO)NC(=O)[C@H](Cc1ccc(O)cc1)NC(=O)[C@H](CCCNC(=N)N)NC(=O)[C@@H](N)CCCCN)[C@@H](C)CC)[C@@H](C)CC)C(C)C)C(=O)O [114 resynthesized] (H-KRYSRLDYLINGIYVDI-OH)			3890 nM	15.8 µM	
CC[C@H](C)[C@H](NC(=O)[C@H](CC(=O)O)NC(=O)[C@@H](NC(=O)[C@H](Cc1ccc(O)cc1)NC(=O)[C@@H](NC(=O)CNC(=O)[C@H](CC(N)=O)NC(=O)[C@@H](NC(=O)[C@H](CC(C)C)NC(=O)[C@H](Cc1ccc(O)cc1)NC(=O)[C@H](CC(=O)O)NC(=O)[C@H](CC(C)C)NC(=O)[C@H](CCCNC(=N)N)NC(=O)[C@H](CO)NC(=O)[C@H](Cc1ccc(O)cc1)NC(=O)[C@H](CCCNC(=N)N)NC(=O)[C@@H](N)CCCCN)[C@@H](C)CC)[C@@H](C)CC)C(C)C)C(=O)O [MANSC (415-431)] (H-KRYSRLDYLINGIYVDI-OH)					EC50 (GPR55 [1]; [6]): 3090 nM; EC50 (GPR55 [2]; [7]): 13.5 µM
HSDGIFTDSYSRYRKQMAVKKYLAAVL [168 original]	312490	32.4			
KRYSRLDYLINGIYVDI [114 original]	619843	46.9			
C[C@H](NC(=O)[C@@H](N)Cc1c[nH]c2ccccc12)C(=O)N[C@@H](CCCNC(=N)N)C(=O)NCC(=O)N[C@@H](CS)C(=O)N[C@@H](CO)C(=O)N[C@H](C(=O)NCC(=O)N[C@@H](CC(N)=O)C(=O)O)[C@@H](C)O [Peptide 213.2] (H-WARGCSTGN-OH)			0.0676 nM	0.000724 µM	
CC(C)C[C@H](NC(=O)[C@H](C)NC(=O)CNC(=O)[C@H](CC(C)C)NC(=O)[C@H](CCCNC(=N)N)NC(=O)[C@@H](N)CCCCN)C(=O)N[C@@H](Cc1ccccc1)C(=O)N[C@@H](CC(N)=O)C(=O)N1CCC[C@H]1C(=O)N[C@@H](Cc1ccc(O)cc1)C(=O)N[C@@H](Cc1ccccc1)C(=O)N[C@@H](CC(=O)O)C(=O)N1CCC[C@H]1C(=O)N[C@@H](CC(C)C)C(=O)N[C@@H](CCC(N)=O)C(=O)N[C@@H](Cc1c[nH]c2ccccc12)C(=O)N[C@@H](CCCCN)C(=O)N[C@@H](CC(N)=O)C(=O)N[C@@H](CO)C(=O)N[C@@H](CC(=O)O)C(=O)N[C@@H](Cc1ccccc1)C(=O)N[C@@H](CCC(=O)O)C(=O)O [Chgb (511-532)] (H-KRLGALFNPYFDPLQWKNSDFE-OH)					EC50 (GPR55 [1]; [6]): 2400 nM; EC50 (GPR55 [2]; [7]): 4.68 µM
CC(C)C[C@H](NC(=O)[C@H](CCCNC(=N)N)NC(=O)[C@@H](N)CCCCN)C(=O)NCC(=O)N[C@@H](CCC(=O)O)C(=O)N[C@@H](CC(C)C)C(=O)N[C@@H](Cc1ccccc1)C(=O)N[C@@H](CC(N)=O)C(=O)N1CCC[C@H]1C(=O)N[C@@H](Cc1ccc(O)cc1)C(=O)N[C@@H](Cc1ccc(O)cc1)C(=O)N[C@@H](CC(=O)O)C(=O)N1CCC[C@H]1C(=O)N[C@@H](CC(C)C)C(=O)N[C@@H](CCC(N)=O)C(=O)N[C@@H](Cc1c[nH]c2ccccc12)C(=O)N[C@@H](CCCCN)C(=O)N[C@@H](CO)C(=O)N[C@@H](CO)C(=O)N[C@@H](Cc1c[nH]cn1)C(=O)N[C@@H](Cc1ccccc1)C(=O)N[C@@H](CCC(=O)O)C(=O)O [Peptide 143.1] (H-KRLGELFNPYYDPLQWKSSHFE-OH)			25100 nM		

From publication PMC6838683, “Discovery of Human Signaling Systems: Pairing Peptides to G Protein-Coupled Receptors” (Cell, 2019)
